Test: loss of linezolid in IV aqueous solution during and following terminal moist heat sterilization in the container
Format: physicochemical
Details: container-solution contact surface made of at least 50% polyolefin
Method: The linezolid IV solution is formulated by heating water for injection from about 50 to about 65°. Next the sodium citrate, citric acid and dextrose are added and stirred until dissolved. An aqueous slurry of linezolid is added to the previous mixture and stirred until dissolved. The mixture is cooled to 25° with stirring. The pH is measured and adjusted if necessary. Last the mixture is brought to volume, if necessary, with water for injection. The mixture is filtered, filled into infusion containers, over wrapped and terminally moist heat sterilized.
When terminally moist heat sterilizing an IV solution, the solution is placed in the container in which (1) it will be stored and then transferred to the container from which it will ultimately be administered, or (2) stored and then ultimately administered from the same container to deliver the IV solution to the patient. Therefore, it is imperative that the pharmaceutically active ingredient (oxazolidinone, linezolid) not react with the container in which it is to be terminally moist heat sterilized and stored/stored-administered.
What is essential is that the container-solution contact surface material be primarily a polyolefin; the remainder of the container can be made from polyolefin or other materials. It is preferred that the container-solution contact surface is made of from about 50 to about 100% polyolefin. […]

loss of linezolid during and following terminal moist heat sterilization: significantly much less loss
Structure (SMILES): CC(=O)NC[C@H]1CN(c2ccc(N3CCOCC3)c(F)c2)C(=O)O1 [linezolid, (S)-N-[[3-[3-fluoro-4-(4-morpholinyl)phenyl]-2-oxo-5-oxazolidinyl]methyl]acetamide]

Reference: US20050075619A1, “Container for linezolid intravenous solution” (priority 2000, published 2005)
